Source: the supplement of paper PMC13380429

How the values were obtained:
Details in all cases: 72 h
Calu-3 [1] = experiment: drug sensitivity score (DSS) for viability; higher = more toxic; extreme values may be limits of the assay
HepG2 [2] = experiment: as above
U2OS [3] = experiment: as above
Vero E6 [4] = experiment: as above
Caco-2 [5] = experiment: cell viability relative to DMSO; higher = less toxic
Calu-3 [6] = experiment: as above
HepG2 [7] = experiment: as above
U2OS [8] = experiment: as above
Caco-2 [9] = experiment: relative viability EC50 (midpoint between 100% and the lowest measured viability); higher = less toxic
Calu-3 [10] = experiment: as above
HepG2 [11] = experiment: as above
U2OS [12] = experiment: as above
Caco-2 [13] = experiment: drug sensitivity score (DSS) for viability; higher = more toxic; extreme values may be limits of the assay
Vero E6 [14] = experiment: cell viability relative to DMSO; higher = less toxic

COc1ccc2c(c1OC)C(=O)O[C@@H]2[C@H]1c2cc3c(cc2CCN1C)OCO3 [hydrastine-(1R,9S)]
drug sensitivity score (Calu-3 [1]): 0
drug sensitivity score (HepG2 [2]): 0
drug sensitivity score (U2OS [3]): 0
drug sensitivity score (Vero E6 [4]): 0

CN1[C@@H]2CC[C@H]1C[C@@H](OC(=O)[C@H](CO)c1ccccc1)C2 [hyoscyamine]
cell viability (Caco-2 [5]; 1 nM): 103%
cell viability (Caco-2 [5]; 10 nM): 99.8%
cell viability (Caco-2 [5]; 100 nM): 95%
cell viability (Caco-2 [5]; 1000 nM): 94.2%
cell viability (Caco-2 [5]; 10000 nM): 89.6%
cell viability (Calu-3 [6]; 1 nM): 103%
cell viability (Calu-3 [6]; 10 nM): 91.6%
cell viability (Calu-3 [6]; 100 nM): 99.9%
cell viability (Calu-3 [6]; 1000 nM): 97.2%
cell viability (Calu-3 [6]; 10000 nM): 99.4%
cell viability (HepG2 [7]; 1 nM): 111%
cell viability (HepG2 [7]; 10 nM): 98.2%
cell viability (HepG2 [7]; 100 nM): 106%
cell viability (HepG2 [7]; 1000 nM): 89.3%
cell viability (HepG2 [7]; 10000 nM): 104%
cell viability (U2OS [8]; 1 nM): 98.9%
cell viability (U2OS [8]; 10 nM): 101%
cell viability (U2OS [8]; 100 nM): 97.8%
cell viability (U2OS [8]; 1000 nM): 101%
cell viability (U2OS [8]; 10000 nM): 99.9%
relative viability EC50 (Caco-2 [9]): > 10 µM
relative viability EC50 (Calu-3 [10]): > 10 µM
relative viability EC50 (HepG2 [11]): > 10 µM
relative viability EC50 (U2OS [12]): > 10 µM
drug sensitivity score (Caco-2 [13]): 0
drug sensitivity score (Calu-3 [1]): 0
drug sensitivity score (HepG2 [2]): 0
drug sensitivity score (U2OS [3]): 0

COC(=O)C1=C(C)NC(C)=C(C(=O)OC(C)C)[C@@H]1c1cccc2nonc12 [isradipine]
cell viability (Caco-2 [5]; 1 nM): 107%
cell viability (Caco-2 [5]; 10 nM): 96.2%
cell viability (Caco-2 [5]; 100 nM): 99.3%
cell viability (Caco-2 [5]; 1000 nM): 93.5%
cell viability (Caco-2 [5]; 10000 nM): 94.2%
cell viability (Calu-3 [6]; 1 nM): 101%
cell viability (Calu-3 [6]; 10 nM): 98.9%
cell viability (Calu-3 [6]; 100 nM): 91.7%
cell viability (Calu-3 [6]; 1000 nM): 97.9%
cell viability (Calu-3 [6]; 10000 nM): 95.2%
cell viability (HepG2 [7]; 1 nM): 98.9%
cell viability (HepG2 [7]; 10 nM): 103%
cell viability (HepG2 [7]; 100 nM): 105%
cell viability (HepG2 [7]; 1000 nM): 106%
cell viability (HepG2 [7]; 10000 nM): 95.9%
cell viability (U2OS [8]; 1 nM): 103%
cell viability (U2OS [8]; 10 nM): 97.9%
cell viability (U2OS [8]; 100 nM): 104%
cell viability (U2OS [8]; 1000 nM): 102%
cell viability (U2OS [8]; 10000 nM): 98.5%
relative viability EC50 (Caco-2 [9]): > 10 µM
relative viability EC50 (Calu-3 [10]): > 10 µM
relative viability EC50 (HepG2 [11]): > 10 µM
relative viability EC50 (U2OS [12]): > 10 µM
drug sensitivity score (Caco-2 [13]): 0
drug sensitivity score (Calu-3 [1]): 0
drug sensitivity score (HepG2 [2]): 0
drug sensitivity score (U2OS [3]): 0

C=C(C)[C@H]1CN[C@H](C(=O)O)[C@H]1CC(=O)O [kainic-acid]
cell viability (Caco-2 [5]; 1 nM): 97.5%
cell viability (Caco-2 [5]; 10 nM): 95.7%
cell viability (Caco-2 [5]; 100 nM): 96.7%
cell viability (Caco-2 [5]; 1000 nM): 104%
cell viability (Caco-2 [5]; 10000 nM): 96.8%
cell viability (Calu-3 [6]; 1 nM): 93.4%
cell viability (Calu-3 [6]; 10 nM): 88.2%
cell viability (Calu-3 [6]; 100 nM): 93.5%
cell viability (Calu-3 [6]; 1000 nM): 90.3%
cell viability (Calu-3 [6]; 10000 nM): 98.3%
cell viability (HepG2 [7]; 1 nM): 106%
cell viability (HepG2 [7]; 10 nM): 105%
cell viability (HepG2 [7]; 100 nM): 110%
cell viability (HepG2 [7]; 1000 nM): 102%
cell viability (HepG2 [7]; 10000 nM): 93.7%
cell viability (U2OS [8]; 1 nM): 99.7%
cell viability (U2OS [8]; 10 nM): 99.4%
cell viability (U2OS [8]; 100 nM): 101%
cell viability (U2OS [8]; 1000 nM): 99.8%
cell viability (U2OS [8]; 10000 nM): 95.6%
relative viability EC50 (Caco-2 [9]): > 10 µM
relative viability EC50 (Calu-3 [10]): > 10 µM
relative viability EC50 (HepG2 [11]): > 10 µM
relative viability EC50 (U2OS [12]): > 10 µM
drug sensitivity score (Caco-2 [13]): 0
drug sensitivity score (Calu-3 [1]): 0
drug sensitivity score (HepG2 [2]): 0
drug sensitivity score (U2OS [3]): 0

C[N+]1(C)[C@@H]2C[C@@H](OC(=O)[C@H](CO)c3ccccc3)C[C@H]1[C@@H]1O[C@@H]12 [methscopolamine]
drug sensitivity score (Calu-3 [1]): 0
drug sensitivity score (HepG2 [2]): 0
drug sensitivity score (U2OS [3]): 0
drug sensitivity score (Vero E6 [4]): 0

Cc1ccc(-n2nc(C(C)(C)C)cc2NC(=O)NCc2cc(F)ccc2Oc2ccc3c(cnn3CCO)c2)cc1 [pexmetinib]
cell viability (Caco-2 [5]; 1 nM): 100%
cell viability (Caco-2 [5]; 10 nM): 93.2%
cell viability (Caco-2 [5]; 100 nM): 91.4%
cell viability (Caco-2 [5]; 1000 nM): 84.3%
cell viability (Caco-2 [5]; 10000 nM): 81.4%
cell viability (Calu-3 [6]; 1 nM): 100%
cell viability (Calu-3 [6]; 10 nM): 85.9%
cell viability (Calu-3 [6]; 100 nM): 93.2%
cell viability (Calu-3 [6]; 1000 nM): 95.8%
cell viability (Calu-3 [6]; 10000 nM): 91%
cell viability (HepG2 [7]; 1 nM): 96.9%
cell viability (HepG2 [7]; 10 nM): 109%
cell viability (HepG2 [7]; 100 nM): 104%
cell viability (HepG2 [7]; 1000 nM): 90.7%
cell viability (HepG2 [7]; 10000 nM): 0.1%
cell viability (U2OS [8]; 1 nM): 96.8%
cell viability (U2OS [8]; 10 nM): 90.8%
cell viability (U2OS [8]; 100 nM): 97.1%
cell viability (U2OS [8]; 1000 nM): 80.9%
cell viability (U2OS [8]; 10000 nM): 54.3%
cell viability (Vero E6 [14]; 1 nM): 97.6%
cell viability (Vero E6 [14]; 10 nM): 100%
cell viability (Vero E6 [14]; 100 nM): 91.2%
cell viability (Vero E6 [14]; 1000 nM): 104%
cell viability (Vero E6 [14]; 10000 nM): 64.7%
relative viability EC50 (Caco-2 [9]): > 10 µM
relative viability EC50 (Calu-3 [10]): > 10 µM
relative viability EC50 (HepG2 [11]): 2.4 µM
drug sensitivity score (Caco-2 [13]): 2.1
drug sensitivity score (Calu-3 [1]): 0
drug sensitivity score (HepG2 [2]): 7
drug sensitivity score (U2OS [3]): 4.5
drug sensitivity score (Vero E6 [4]): 1.4

OCc1ccccc1O[C@@H]1O[C@H](CO)[C@@H](O)[C@H](O)[C@H]1O [salicin]
drug sensitivity score (Calu-3 [1]): 0
drug sensitivity score (HepG2 [2]): 0
drug sensitivity score (U2OS [3]): 0
drug sensitivity score (Vero E6 [4]): 0

Cc1ncc([N+](=O)[O-])n1CC(C)O (stereo unspecified) [secnidazole]
drug sensitivity score (Calu-3 [1]): 0.4
drug sensitivity score (HepG2 [2]): 0
drug sensitivity score (U2OS [3]): 0
drug sensitivity score (Vero E6 [4]): 0

CO[C@H]1C[C@@H]2CC[C@@H](C)[C@@](O)(O2)C(=O)C(=O)N2CCCC[C@H]2C(=O)O[C@H]([C@H](C)C[C@@H]2CC[C@@H](O)[C@H](OC)C2)CC(=O)[C@H](C)/C=C(\C)[C@@H](O)[C@@H](OC)C(=O)[C@H](C)C[C@H](C)/C=C/C=C/C=C/1C [sirolimus]
cell viability (Caco-2 [5]; 1 nM): 72.7%
cell viability (Caco-2 [5]; 10 nM): 55.4%
cell viability (Caco-2 [5]; 100 nM): 56.8%
cell viability (Caco-2 [5]; 1000 nM): 52%
cell viability (Caco-2 [5]; 10000 nM): 54.2%
cell viability (Calu-3 [6]; 1 nM): 65.3%
cell viability (Calu-3 [6]; 10 nM): 42.2%
cell viability (Calu-3 [6]; 100 nM): 42.6%
cell viability (Calu-3 [6]; 1000 nM): 47.5%
cell viability (Calu-3 [6]; 10000 nM): 47.3%
cell viability (HepG2 [7]; 1 nM): 78.3%
cell viability (HepG2 [7]; 10 nM): 63.9%
cell viability (HepG2 [7]; 100 nM): 60.4%
cell viability (HepG2 [7]; 1000 nM): 66.1%
cell viability (HepG2 [7]; 10000 nM): 53.7%
cell viability (U2OS [8]; 1 nM): 77%
cell viability (U2OS [8]; 10 nM): 57.9%
cell viability (U2OS [8]; 100 nM): 60.3%
cell viability (U2OS [8]; 1000 nM): 55.8%
cell viability (U2OS [8]; 10000 nM): 59.9%
cell viability (Vero E6 [14]; 1 nM): 92.3%
cell viability (Vero E6 [14]; 10 nM): 69.4%
cell viability (Vero E6 [14]; 100 nM): 58.6%
cell viability (Vero E6 [14]; 1000 nM): 55.9%
cell viability (Vero E6 [14]; 10000 nM): 60.6%
relative viability EC50 (Calu-3 [10]): < 0.001 µM
drug sensitivity score (Caco-2 [13]): 22.7
drug sensitivity score (Calu-3 [1]): 29
drug sensitivity score (HepG2 [2]): 17.5
drug sensitivity score (U2OS [3]): 21.2
drug sensitivity score (Vero E6 [4]): 17.5

O=c1[nH]c(=O)n([C@H]2C[C@H](O)[C@@H](CO)O2)cc1C(F)(F)F [trifluridine]
cell viability (Caco-2 [5]; 1 nM): 93.3%
cell viability (Caco-2 [5]; 10 nM): 93.9%
cell viability (Caco-2 [5]; 100 nM): 98.4%
cell viability (Caco-2 [5]; 1000 nM): 94%
cell viability (Caco-2 [5]; 10000 nM): 81.7%
cell viability (Calu-3 [6]; 1 nM): 106%
cell viability (Calu-3 [6]; 10 nM): 121%
cell viability (Calu-3 [6]; 100 nM): 103%
cell viability (Calu-3 [6]; 1000 nM): 100%
cell viability (Calu-3 [6]; 10000 nM): 97.7%
cell viability (HepG2 [7]; 1 nM): 95.9%
cell viability (HepG2 [7]; 10 nM): 93.2%
cell viability (HepG2 [7]; 100 nM): 104%
cell viability (HepG2 [7]; 1000 nM): 64.8%
cell viability (HepG2 [7]; 10000 nM): 36.1%
cell viability (Vero E6 [14]; 1 nM): 101%
cell viability (Vero E6 [14]; 10 nM): 105%
cell viability (Vero E6 [14]; 100 nM): 108%
cell viability (Vero E6 [14]; 1000 nM): 102%
cell viability (Vero E6 [14]; 10000 nM): 69.5%
relative viability EC50 (Caco-2 [9]): > 10 µM
relative viability EC50 (Calu-3 [10]): > 10 µM
relative viability EC50 (HepG2 [11]): 0.923 µM
drug sensitivity score (Caco-2 [13]): 0.9
drug sensitivity score (Calu-3 [1]): 0
drug sensitivity score (HepG2 [2]): 7.8
drug sensitivity score (Vero E6 [4]): 1.2
